From patent US20080161336A1, “Orally bioavailable CCI-779 formulations” (Wyeth, priority 2005, published 2008)

Experiments:
[1] = Bioavailability study: safety (adverse events, laboratory abnormalities, vital signs); type: in vivo, human
Excerpt: On day 1 of each of the 3 study periods, the subjects received a single oral dose of 1 of 4 treatments (treatments A, B, C, or reference).
On day 1 of each of the 3 study periods, the subjects received a single oral dose of 1 of 4 treatments (A, B, C, or reference).

Water solubility = type: physicochemical
[2] = Partition coefficient in 1-octanol/water system; type: physicochemical
[3] = BCS classification system; type: physicochemical
[4] = Stability of CCI-779 (aqueous, oxidation, hydroalcoholic granulation solution); type: physicochemical
Excerpt: One obstacle towards the formulation of CCI-779 is its poor aqueous dissolution and low oral bioavailability. […] A CCI-779 formulation was developed that employed a wet granulation manufacturing process. See US Published Patent Application No. US-2004-0077677-A1. This process involved preparation of a hydroalcoholic granulation solution of CCI-779. Further, although the resulting tablets were stable and bioavailable, the preparation of the hydroalcoholic solution was very tedious.

[5] = tested on: histologically diverse tumor cells; settings: in vitro, cited from earlier work

Compound: COC1C[C@@H]2CC[C@@H](C)[C@@](O)(O2)C(=O)C(=O)N2CCCC[C@H]2C(=O)O[C@H]([C@H](C)CC2CC[C@@H](OC(=O)C(C)(CO)CO)[C@H](OC)C2)CC(=O)[C@H](C)/C=C(\C)[C@@H](O)[C@@H](OC)C(=O)[C@H](C)C[C@H](C)/C=C/C=C/C=C/1C (stereo partly drawn) [CCI-779, Rapamycin 42-ester with 3-hydroxy-2-(hydroxymethyl)-2-methylpropionic acid]
- severity of treatment-emergent AEs ([1]; all 45 treatment-emergent AEs): mild
- subjects with aminotransferase elevations ([1]; all treatments, 4 subjects): 10%
- subjects with white blood cells in the urine ([1]; all treatments, 5 subjects): 13%
- deaths or other serious adverse events ([1]; during the study): No deaths or other serious adverse events occurred
- vital sign measurements, electrocardiogram results, physical examination findings ([1]; in vivo): No clinically significant trends
- subjects with clinically significant laboratory abnormalities after dose administration ([1]; number of subjects, all treatments): 13
- AEs considered by the investigator to be related to CCI-779 treatment ([1]; number of the 45 AEs): 16
- subjects with at least 1 treatment-emergent adverse event (AE) ([1]; of the 40 subjects who received CCI-779, all treatments): 48%
- solubility (Water solubility): < 1 µg/mL
- Log PC [2]: ≥ 4.1
- BCS classification [3]: class II
- aqueous stability [4]: aqueous instability
- stability of hydroalcoholic granulation solution of CCI-779 ([4]; after its preparation): precipitating within one day
- growth of tumor cells ([5]; CNS cancer, leukemia (T-cell), breast cancer, prostate cancer, melanoma lines among the most sensitive): inhibit the growth
- cell cycle effect [5]: arrested cells in the G1 phase
